Test: Evaluation of stability in liver microsome
Details: mouse liver microsome 0.25 mg/mL, 1 μM test compound, 37° C. for 30 minutes

Structure (SMILES) | Remaining (%)
COCc1ccc(NC(=O)c2c(C#CC3(O)CCOC3)n(C3(C)CC3)c3ncnc(N)c23)cc1 (centres unmarked) [Example 177, 4-amino-6-((3-hydroxytetrahydrofuran-3-yl)ethynyl)-N-(4-(methoxymethyl)phenyl)-7-(1-methylcyclopropyl)-7H-pyrrolo[2,3-d]pyrimidine-5-carboxamide] | 72
COCc1ccc(NC(=O)c2c(C#CCC(C)O)n(C3(C)CC3)c3ncnc(N)c23)cc1 (centres unmarked) [Example 188, 4-amino-6-(4-hydroxypent-1-yn-1-yl)-N-(4-(methoxymethyl)phenyl)-7-(1-methylcyclopropyl)-7H-pyrrolo[2,3-d]pyrimidine-5-carboxamide] | 68
COCc1ccc(NC(=O)c2c(/C=C/CO)n(C3(C)CC3)c3ncnc(N)c23)cc1 [Example 109, (E)-4-amino-6-(3-hydroxyprop-1-en-1-yl)-N-(4-(methoxymethyl)phenyl)-7-(1-methylcyclopropyl)-7H-pyrrolo[2,3-d]pyrimidine-5-carboxamide] | 68
COCc1ccc(NC(=O)c2c(C#Cc3cccc(F)c3)n(C3(C)CC3)c3ncnc(N)c23)cc1 [Example 130, 4-amino-6-((3-fluorophenyl)ethynyl)-N-(4-(methoxymethyl)phenyl)-7-(1-methylcyclopropyl)-7H-pyrrolo[2,3-d]pyrimidine-5-carboxamide] | 84
COCc1ccc(NC(=O)c2c(C#Cc3ccc(OC)cc3)n(C3(C)CC3)c3ncnc(N)c23)cc1 [Example 165, 4-amino-N-(4-(methoxymethyl)phenyl)-6-((4-methoxypheny)ethynyl)-7-(1-methylcyclopropyl)-7H-pyrrolo[2,3-d]pyrimidine-5-carboxamide] | 90
COCc1ccc(NC(=O)c2c(C#Cc3ccn[nH]3)n(C3(C)CC3)c3ncnc(N)c23)cc1 [Example 129, 6-((1H-pyrazol-5-yl)ethynyl)-4-amino-N-(4-(methoxymethyl)phenyl)-7-(1-methylcyclopropyl)-7H-pyrrolo[2,3-d]pyrimidine-5-carboxamide] | 54
COCc1ccc(NC(=O)c2c(C#Cc3cncn3C)n(C3(C)CC3)c3ncnc(N)c23)cc1 [Example 93, 4-amino-N-(4-(methoxymethyl)phenyl)-6-((1-methyl-1H-imidazol-5-yl)ethynyl)-7-(1-methylcyclopropyl)-7H-pyrrolo[2,3-d]pyrimidine-5-carboxamide] | 53
COCc1ccc(NC(=O)c2c(-c3ccc(CO)nc3)n(C3(C)CC3)c3ncnc(N)c23)cc1 [Example 179, 4-amino-6-(6-(hydroxymethyl)pyridin-3-yl)-N-(4-(methoxymethyl)phenyl)-7-(1-methylcyclopropyl)-7H-pyrrolo[2,3-d]pyrimidine-5-carboxamide] | 85
COCc1ccc(NC(=O)c2c(C#CC3(O)CCCC3)n(C3(C)CC3)c3ncnc(N)c23)cc1 [Example 131, 4-amino-6-((1-hydroxycyclopentyl)ethynyl)-N-(4-(methoxymethyl)phenyl)-7-(1-methylcyclopropyl)-7H-pyrrolo[2,3-d]pyrimidine-5-carboxamide] | 55
COCc1ccc(NC(=O)c2c(Cl)n(C3(C)CC3)c3ncnc(N)c23)cc1 [Example 56, 4-amino-6-chloro-N-[4-(methoxymethyl)phenyl]-7-(1-methylcyclopropyl)-7H-pyrrolo[2,3-d]pyrimidine-5-carboxamide] | 62
COCc1ccc(NC(=O)c2c(C#Cc3ccsc3)n(C3(C)CC3)c3ncnc(N)c23)cc1 [Example 176, 4-amino-N-(4-(methoxymethyl)phenyl)-7-(1-methylcyclopropyl)-6-(thiophen-3-ylethynyl)-7H-pyrrolo[2,3-d]pyrimidine-5-carboxamide] | 70
